Assay results from ChEMBL document CHEMBL1157539, “Thousands of chemical starting points for antimalarial lead identification” (Nature, 2010).

test system: Plasmodium falciparum; experiment: GSK_TCMDC: Inhibition of Plasmodium falciparum 3D7 in whole erythrocytes, using parasite LDH activity as an index of growth.; assay type: functional, organism-based; conditions: Plasmodium falciparum, 3D7

`CCN(CC)CCN(CCCc1ccc(-c2ccc(C(F)(F)F)cc2)cc1)C(=O)Cn1c(CCc2cccc(F)c2F)nc(=O)c2c1CCC2` and `CCN1CCC(N(Cc2ccc(-c3ccc(C(F)(F)F)cc3)cc2)C(=O)Cn2c(SCc3ccc(F)cc3)nc(=O)c3c2CCC3)CC1` are within 1.5-fold of each other in XC50: 828 nM for the first, 991 nM for the second.

`Cc1cc(F)ccc1Nc1nc(N(C)c2ccccc2)c2cc(OCCCN(C)C)ccc2n1` and `COc1ccc(CCN(C)CCOc2ccc(NC(=O)c3cccc4cc5ccccc5nc34)cc2)cc1OC` are within 1.5-fold of each other in XC50: 717 nM for the first, 680 nM for the second.

`COc1ccc(CCNC(=O)c2cc3c(=O)n4cccc(C)c4nc3n(C)c2=N)cc1` and `CCCn1c(=N)c(C(=O)NCCc2ccccc2)cc2c(=O)n3cccc(C)c3nc21` are within 1.5-fold of each other in XC50: 762 nM for the first, 1120 nM for the second.

`O=C(/C=C/c1ccc(Cl)c(Cl)c1)NCCCCCN1CCCN(C(=O)Nc2ccc(F)c(F)c2)CC1` and `O=C(Nc1cccc(CN2CCCN(Cc3ccc(F)cc3)CC2)c1)c1ccc(Cl)c(Cl)c1` are within 1.5-fold of each other in XC50: 803 nM for the first, 958 nM for the second.

`O=C(NC1CC1)c1ccc(Cn2c(SCc3cccc([N+](=O)[O-])c3)nc3ccccc3c2=O)cc1` and `COC(=O)c1ccc2nc(-c3ccc(/C=C/C(=O)NC4CCN(Cc5ccccc5)CC4)cc3)[nH]c2c1` are within 1.5-fold of each other in XC50: 764 nM for the first, 711 nM for the second.

Compared with `FC(F)(F)c1ccc2[nH]c(-c3ccc(-c4cccc(CNCCc5ccncc5)c4)s3)nc2c1`, `c1cncc(CCNCc2cccc(-c3ccc(-c4nc5ccccc5[nH]4)s3)c2)c1` is 1.7-fold higher in XC50: 117 nM for the first, 202 nM for the second.

First: C#CCN1CCC2=C(C1)c1c(O)cc(C(C)C(C)CCc3ccc(F)cc3)cc1OC2(C)C (configuration not stated)
Second: CCCCCC(C)C(C)c1cc(O)c2c(c1)OC(C)(C)c1cnccc1-2 (configuration not stated)
The XC50 of the first is 4.4-fold lower: 175 nM for the first, 770 nM for the second.

Going from `COc1cc(Cc2cnc(N)nc2N)cc(OCCCc2cc(OCc3ccccc3)no2)c1OC` to `Cc1ccccc1OCCCc1c(C)nc(N)nc1N`, the XC50 falls from 1870 nM to 277 nM (6.8-fold).

`O=C(/C=C/c1ccc(O)cc1)NC1CCC(CN2CCC(c3c[nH]c4ccccc34)CC2)CC1` (configuration not stated) and `N#Cc1ccc(N[C@@H](CC2CCCCC2)C(=O)N[C@@H]2CCCc3ccccc32)c2ccccc12` are within 1.5-fold of each other in XC50: 744 nM for the first, 728 nM for the second.

`CCOC(=O)c1c(CN(CC)CC)n(-c2ccccc2)c2cc(Br)c(O)cc12` and `CCNC(=O)c1ccc(-n2nc(C)cc2-c2ccccc2)cc1` are within 1.5-fold of each other in XC50: 998 nM for the first, 1120 nM for the second.

Going from `Cc1cc(=NN=Cc2ccccc2F)c2cc(F)ccc2[nH]1` to `CCOc1ccc2c(=NN=Cc3cc(OC)c(OC)cc3OC)cc(C)[nH]c2c1`, the XC50 rises from 299 nM to 997 nM (3.3-fold).

`CCCC(C)Nc1nc(C)cc(N[C@@H](Cc2ccccc2)C(=O)NCCc2ccccc2)n1` (some centres not stated) and `Cc1cc(N[C@@H](Cc2ccccc2)C(=O)NCCc2ccccc2)nc(NCC2CCCCC2)n1` are within 1.5-fold of each other in XC50: 954 nM for the first, 917 nM for the second.

Going from `Cc1cccc2nc(-c3cccc(-c4cccc(NC(=O)c5ccncc5)c4)c3)[nH]c12` to `Cc1cccc2nc(-c3cccc(-c4cccc(NC(=O)NCc5ccccc5)c4)c3)[nH]c12`, the XC50 rises from 236 nM to 521 nM (2.2-fold).

`COc1cc(-c2cc3cc(Cl)c(Cl)cc3[nH]2)ccc1C(=O)NC1CCN(Cc2ccccc2)CC1` and `O=C(NC1CCN(Cc2ccccc2)CC1)c1ccc(-c2nc3cc(Cl)c(Cl)cc3[nH]2)c(F)c1` are within 1.5-fold of each other in XC50: 531 nM for the first, 736 nM for the second.

`Cc1cc(CNCCCCCCNCc2ccc(Cl)cc2)ccc1O` and `CC(C)CNCc1ccc(OCc2cccc(COc3ccc(CNCC(C)C)cc3I)c2)c(I)c1` are within 1.5-fold of each other in XC50: 823 nM for the first, 772 nM for the second.

First: Cc1ccc2c(c1C)NC(=O)C21NN=C(c2ccccc2)S1 (configuration not stated)
Second: Cc1[nH]c(C)c(-c2ccc(-c3cccc(Cl)c3)nc2)c(=O)c1Br
The XC50 of the first is 2.4-fold higher: 749 nM for the first, 318 nM for the second.

Compared with `COc1cc2nc(N3CCC(CNC(=O)c4ccc(-c5ccc(C#N)cc5C)cc4)CC3)nc(N)c2cc1OC`, `COc1ccc(Cl)cc1N1CCN(CCCNC(=O)c2ccc(-c3nc4cnccc4[nH]3)c(Br)c2)CC1` is 6.4-fold higher in XC50: 180 nM for the first, 1150 nM for the second.

Compared with `FC(F)(F)c1ccc2[nH]c(-c3cccc(-c4cccc(CNCc5cnn(-c6ccccc6)n5)c4)c3)nc2c1`, `c1cc(CN2CCN(c3ccncc3)CC2)cc(-c2cccc(-c3nc4ccccc4[nH]3)c2)c1` is 4.4-fold lower in XC50: 552 nM for the first, 126 nM for the second.

`Oc1ccccc1Nc1nc(NCc2ccco2)c2ccccc2n1` and `COc1ccccc1CCNc1nccc(N[C@@H](Cc2ccccc2)C(=O)NCc2cccs2)n1` are within 1.5-fold of each other in XC50: 644 nM for the first, 871 nM for the second.

Going from `Cc1nc(C)c(-c2ccc(C(=O)c3ccc(Cl)cc3)cc2)c(O)c1Cl` to `O=C(Nc1ccc(Cl)c(C(F)(F)F)c1)c1ccc(C(=O)Nc2ccc(Cl)c(C(F)(F)F)c2)cc1`, the XC50 rises from 535 nM to 1000 nM (1.9-fold).

First: O=C(Nc1cn(-c2ccc(OCc3cccc(F)c3)c(Cl)c2)c2ncncc12)c1ccncc1
Second: O=C(Nc1nc2cc(S(=O)(=O)NCc3ccc(Cl)c(Cl)c3)ccc2n1CCCn1ccnc1)c1ccc(Cl)cc1
The XC50 of the first is 4.3-fold lower: 171 nM for the first, 727 nM for the second.

Going from `Clc1ccc(-c2ccc(C=NNc3nc(=Nc4ccccc4)[nH]c(=Nc4ccccc4)[nH]3)o2)cc1Cl` to `CC(Nc1cc(-c2ccccn2)nc(-c2ccccn2)n1)c1ccccc1` (configuration not stated), the XC50 falls from 736 nM to 453 nM (1.6-fold).

`COc1ccc(NC(=O)Nc2ccc(-c3ccccc3)cc2)cc1Cn1cnc(N2CCCNCC2)cc1=O` and `CC(C)(C)c1ccc(NC(=O)Nc2ccc(Cn3ncc(N4CCCNCC4)c(Cl)c3=O)cc2)cc1` are within 1.5-fold of each other in XC50: 759 nM for the first, 752 nM for the second.

`CC(C)N(Cc1ccc(-c2ccc(C(F)(F)F)cc2)cc1)C(=O)Cn1c(SCc2cccc(F)c2F)cc(=O)c2cc(CN3CCCCC3)ccc21` and `N#Cc1ccc(CN2CCCN(Cc3cccc(NC(=O)c4ccc(-c5ccccc5)cc4)c3)CC2)cc1` are within 1.5-fold of each other in XC50: 872 nM for the first, 1020 nM for the second.

Going from `Cc1cc(N[C@@H](Cc2ccccc2)C(=O)NCCOc2ccccc2)nc(Nc2ccccc2)n1` to `Cc1cc(N[C@@H](CC(C)C)C(=O)NCc2cccc(F)c2)nc(NCCc2ccc(F)cc2)n1`, the XC50 rises from 875 nM to 1470 nM (1.7-fold).

`COc1nc2c(CCN3CC[C@H](NCc4ccc5c(c4)NC(=O)CO5)[C@H](O)C3)c(Cl)cnc2cc1F` and `COc1ccc(NC(=O)/C=C/c2ccccc2Cl)cc1OCCN1CCC(NCc2cccnc2)CC1` are within 1.5-fold of each other in XC50: 1020 nM for the first, 761 nM for the second.

First: CCC(C)NS(=O)(=O)c1ccc2nc(Nc3ccc(C)cc3)n(C3CCCCC3)c2c1 (configuration not stated)
Second: CC(=O)Nc1ccc(S(=O)(=O)N2CCN(c3nc(NC4CCCC4)c4ccccc4n3)CC2)cc1
The XC50 of the first is 2.2-fold lower: 462 nM for the first, 1030 nM for the second.

`Cc1nc(C)c(CC(=O)Nc2ccc(-c3cccc(-c4nc5cccc(C)c5[nH]4)c3)cc2)s1` and `COc1ccc(-c2ccc(NC(=O)c3ccc(F)cc3)cc2)cc1CNC(C)C` are within 1.5-fold of each other in XC50: 596 nM for the first, 758 nM for the second.

`CC(C)c1ccc(C2CCN(CCCCNC(=O)c3ccc(NC(=O)c4ccc(C(F)(F)F)cc4)cc3)CC2)c(O)c1` and `CC(C)c1ccc(NC(=O)c2cccc(CN3CCCN(Cc4cccc(O)c4)CC3)c2)cc1` are within 1.5-fold of each other in XC50: 579 nM for the first, 772 nM for the second.

Going from `CCCCCCCCc1c(C)nc(C)c(I)c1O` to `CCCCN(CCCC)CCCCNc1c2ccccc2nc2ccccc12`, the XC50 falls from 737 nM to 148 nM (5-fold).

Going from `CCCCOc1cc(C)nc2ccc(NC(=O)COCC(=O)Nc3ccc4nc(C)cc(OCCCC)c4c3)cc12` to `CCOc1ccccc1C=CC(=O)Nc1ccc2nc(N3CCN(C)CC3)cc(C)c2c1`, the XC50 falls from 1000 nM to 273 nM (3.7-fold).

`CC(C)(C)c1ccc(CN2CCCCC(NC(=O)c3cc(-c4ccccc4Cl)cs3)C2)cc1` (configuration not stated) and `COc1cccc(-c2csc(C(=O)NC3CCCCN(Cc4ccc(C(C)(C)C)cc4)C3)c2)c1` (configuration not stated) are within 1.5-fold of each other in XC50: 1120 nM for the first, 887 nM for the second.

`c1ccc(Oc2ccc(Nc3ccnc(Nc4cccc(CNCCCN5CCOCC5)c4)n3)cc2)cc1` and `O=C(/C=C/c1ccc(CNCCN2CCOCC2)cc1)NCCc1ccccc1` are within 1.5-fold of each other in XC50: 1040 nM for the first, 864 nM for the second.

Going from `Nc1c2c(nc3ccc(NC(=O)c4ccc([N+](=O)[O-])cc4)cc13)CCCC2` to `Cc1noc(C)c1-c1ccc2c(Nc3ccc([N+](=O)[O-])cc3)c(C(N)=O)cnc2c1`, the XC50 rises from 237 nM to 692 nM (2.9-fold).

`CC(=O)N(Cc1nc(-c2cc(C(F)(F)F)cc(C(F)(F)F)c2)cs1)c1c(C)cccc1C` and `Cc1cc(C)n2nc(C(=O)Nc3cc(C(F)(F)F)ccc3N3CCOCC3)nc2n1` are within 1.5-fold of each other in XC50: 107 nM for the first, 119 nM for the second.

Compared with `NCCCCc1c(-c2ccc(Cl)c(Cl)c2)[nH]c2ccc(Cl)cc12`, `O=S(=O)(c1c(Cl)cc(Cl)cc1Cl)N1CCCCC(c2ccc(F)c(F)c2)=N1` is 1.5-fold lower in XC50: 912 nM for the first, 594 nM for the second.

First: Cc1ccc(-c2cc(C(=O)Nc3ccc(S(=O)(=O)N(C)Cc4ccccc4)cc3)[nH]n2)c(O)c1
Second: Cc1ccccc1-c1cc(=O)c2cc(NC(=O)c3cccs3)ccc2o1
The XC50 of the first is 3.9-fold higher: 845 nM for the first, 218 nM for the second.

`O=C(Nc1ccc(Cl)cc1)N[C@H]1CCN(Cc2ccc(OCCCN3CCCCC3)cc2)C1` and `Oc1ccc(CN2CCN(CCOC(c3ccccc3)c3ccc(Cl)cc3)CC2)cc1Cl` (configuration not stated) are within 1.5-fold of each other in XC50: 671 nM for the first, 858 nM for the second.

`CC(C)NCc1cccc(-c2cccc(NC(=O)c3cccc(Cl)c3)c2)c1` and `COc1ccc(-c2ccc(NC(=O)c3cccc(Cl)c3)cc2)cc1CN(C)CCN(C)C` are within 1.5-fold of each other in XC50: 592 nM for the first, 782 nM for the second.

Going from `Cc1ccc(N2C(N)=NC(N)=NC2(C)C)cc1` to `CCC(C)(CC)C(=O)n1ncc2c3c(N)nc(N)nc3ccc21`, the XC50 falls from 36.6 nM to 6 nM (6.1-fold).

Compared with `COc1ccc(-c2cccc(CNC3CCN(C)CC3)c2)cc1S(=O)(=O)NCc1ccccc1`, `COc1ccc2nccc([C@@H](O)CN3CCC(NC(=O)C(c4ccccc4C)N4CCC(Cc5ccccc5)CC4)CC3)c2c1` (some centres not stated) is 3.3-fold lower in XC50: 874 nM for the first, 261 nM for the second.

Compared with `CCc1cccc(OCC2CCCN(c3ccc(C(=O)NC4CC4)cn3)C2)c1` (configuration not stated), `CCOc1cc(C(=O)NC2CC(C)(C)N(C)C(C)(C)C2)ccc1-c1nc2cc(Cl)c(Cl)cc2[nH]1` is 1.7-fold lower in XC50: 1440 nM for the first, 861 nM for the second.

`COC(=O)c1ccc(OCC(O)CO)cc1O` (configuration not stated) and `CC(Cc1ccc(OCc2ccccc2)cc1)NCC(O)c1cccc(Cl)c1` (configuration not stated) are within 1.5-fold of each other in XC50: 738 nM for the first, 547 nM for the second.

Going from `N=C(N)NC(=O)Nc1cc(Cl)c(F)c(Cl)c1` to `N#Cc1cc(C(=O)Nc2ccccc2)c(N)nc1SCC(=O)Nc1ccc(Br)cc1`, the XC50 rises from 635 nM to 1100 nM (1.7-fold).

Going from `CN(C)c1nc2cc(-n3cnc4cc(-c5ccc(Cl)cc5)sc4c3=O)ccc2n1CCCN1CCCC1` to `Cc1ccc(-c2ccc(NC(=O)N3CCc4cc(Br)c(N5CCN(C)CC5)cc43)cc2)cn1`, the XC50 rises from 848 nM to 1350 nM (1.6-fold).

First: Cc1csc(NC2=NCCN2)n1
Second: COc1ccc(-c2nnc(Sc3ccc(C#N)c([N+](=O)[O-])c3)n2CCC(C)C)cc1
The XC50 of the first is 2.4-fold lower: 471 nM for the first, 1110 nM for the second.

`CCN1CCN(CCNc2c3ccccc3nc3ccccc23)CC1` and `CC[C@H]1C[N+]2([O-])CC[C@@H]1C[C@H]2[C@H](O)c1cc(-c2ccccc2)nc2ccc(OC)cc12` are within 1.5-fold of each other in XC50: 1020 nM for the first, 840 nM for the second.

Compared with `O=C(O)c1cccnc1Sc1ccc(Cl)cc1`, `CC(=O)N1Cc2ccccc2C1=O` is 1.6-fold lower in XC50: 830 nM for the first, 522 nM for the second.

With `COc1cccc2cc(C(=O)N[C@@H](CC(C)C)C(=O)N[C@H](C=NNC(=O)OC(C)(C)C)Cc3ccccc3)oc12` the XC50 was 304 nM.
